Reference: US20240285727A1, “NOVEL THERAPEUTIC PEPTIDES FOR NEURODEGENERATION” (UNIVERSITY OF SOUTHERN CALIFORNIA, priority 2021, published 2024)
Ends that are not written are not given here.

How the values were obtained:
[1] = test system: SHSY5Y; assay: Analogue screening assay, measured by MTT; assay type: cell-based; details: as a percentage compared to SHMOOSE (SHMOOSE activity as 100%)
Description: FIG. 10 depicts an analogue screening assay, measured by MTT. Top: each bar represents a fragment (25-amino acid in length) of SHMOOSE. Bottom: each bar represents a phosphomimetic fragment (25-amino acid in length) of SHMOOSE. Cell model is SHSY5Y. The Inventors made 103 analogues/derivatives (see Table 1).
The Inventors made 103 analogues (Table 1). Referring to FIG. 10, in the top figure, each bar represents a 25-amino acid fragment of the SHMOOSE peptide. […] The sequence length of the analogue is 14 amino acids and 3 different analysis windows of the analogue, each having 11 amino acids, were characterized. […]

[2] = test system: C57BL/6J mice fed a high fat diet; assay: SHMOOSE in vivo: daily IP injections to mice fed a high fat diet, two weeks; set-up: species or system mouse
Description: The inventors also injected SHMOOSE intraperitoneally (IP) to 12-week-old C57BL/6J mice fed a high fat diet (i.e., a mild metabolic perturbation). At the conclusion of the two-week study, the inventors harvested brain and liver for RNA-Seq. As the inventors observed for SHMOOSE.D47N carriers and in in vitro experiments, 367 differentially expressed genes under a p adjusted value of 0.05 enriched mitochondrial and ribosomal terms in the liver (FIG. 3C). That is, liver expression differences were observed after SHMOOSE IP injections. Brain hypothalamus expression differences were also observed after SHMOOSE IP injections. Further, cortical expression differences were observed after SHMOOSE IP injections. However, while the inventors observed global gene expression changes as illustrated by PCA in the mouse cortex and hypothalamus, most enriched terms included central nervous system-related terms, not ribosomes nor mitochondrial specifics (FIG. 17). Furthermore, brain hippocampus expression differences were observed after SHMOOSE IP injections.
To examine the transcriptomes of mice treated with SHMOOSE, 12-week-old male […] mice were obtained from The Jackson Laboratory. Mice were fed a high fat diet for 10 days (60% total calories) prior to initiation of SHMOOSE daily IP injections (2.5 mg/kg). No more than 60 ul of volume were injected IP. […]

[3] = SHMOOSE pharmacokinetics after intraperitoneal injection; assay type: in vivo, mouse; details: IP injected mice
Method: SHMOOSE pharmacokinetics was studied, where 2.5 mg SHMOOSE/kg in 25-week old C57/BI6 mice were intraperitoneally injected.

[4] = test system: SH-SY5Y cells; assay: Seahorse assay (oxygen consumption rate); assay type: cell-based
Method: SH-SY5Y Cells were Plated into 96-Well Plates at a Density of 10,000 Cells. The following day, cells were differentiated for a total of 4 days. Thereafter, SHMOOSE or SHMOOSE.D47N were incubated for 24 hours, followed by cell real-time oxygen consumption rates measurements using XF96 Extracellular Flux Analyzer (Seahorse Bioscience). ATP turnover and maximum respiratory capacity were calculated after challenging cells with oligomycin and FCCP (carbonyl cyanide 4-[trifluoromethoxy]phenylhydrazone). Additionally, glycolytic rate was determined using extracellular acidification rate (ECAR) and individually reported relative to basal level in percentage. All readings were normalized to total DNA content using Hoechst 33342.

[5] = test system: SH-SY5Y cells; assay: Amyloid beta toxicity assay (LIVE/DEAD viability); assay type: cell-based; details: neuronal cells stressed with oligomerized amyloid beta 42 (1 uM); 10 uM peptide
Method: SH-SY5Y cells were differentiated for 4 days, incubated with 10 uM SHMOOSE or SHMOOSE.D47N for 24 hours followed by another incubation with SHMOOSE or SHMOOSE.D47N with or without oligomerized 1 uM amyloid beta 42 (CPC Scientific), prepared as formerly described. A two-color fluorescence cell viability assay (LIVE/DEAD Viability/Cytotoxicity Kit; Invitrogen (cat. L3224) was used to distinguish live cells from dead cells after […] and amyloid beta 42 treatment. The ratio of live to dead cells can be quantified since live cells retain the Calcein AM dye and dead cells with damaged membranes permit entry of the ethidium homodimer dye.

[6] = molecular target: T1, mitofilin (Homo sapiens, UniProt Q16891); assay: SHMOOSE-mitofilin protein interaction (co-immunoprecipitation, reciprocal dot blot); assay type: binding; details: reciprocal dot-based immunoblots, recombinant proteins
T1 construct: purchased OriGene
T1 sequence (Q16891 34-758): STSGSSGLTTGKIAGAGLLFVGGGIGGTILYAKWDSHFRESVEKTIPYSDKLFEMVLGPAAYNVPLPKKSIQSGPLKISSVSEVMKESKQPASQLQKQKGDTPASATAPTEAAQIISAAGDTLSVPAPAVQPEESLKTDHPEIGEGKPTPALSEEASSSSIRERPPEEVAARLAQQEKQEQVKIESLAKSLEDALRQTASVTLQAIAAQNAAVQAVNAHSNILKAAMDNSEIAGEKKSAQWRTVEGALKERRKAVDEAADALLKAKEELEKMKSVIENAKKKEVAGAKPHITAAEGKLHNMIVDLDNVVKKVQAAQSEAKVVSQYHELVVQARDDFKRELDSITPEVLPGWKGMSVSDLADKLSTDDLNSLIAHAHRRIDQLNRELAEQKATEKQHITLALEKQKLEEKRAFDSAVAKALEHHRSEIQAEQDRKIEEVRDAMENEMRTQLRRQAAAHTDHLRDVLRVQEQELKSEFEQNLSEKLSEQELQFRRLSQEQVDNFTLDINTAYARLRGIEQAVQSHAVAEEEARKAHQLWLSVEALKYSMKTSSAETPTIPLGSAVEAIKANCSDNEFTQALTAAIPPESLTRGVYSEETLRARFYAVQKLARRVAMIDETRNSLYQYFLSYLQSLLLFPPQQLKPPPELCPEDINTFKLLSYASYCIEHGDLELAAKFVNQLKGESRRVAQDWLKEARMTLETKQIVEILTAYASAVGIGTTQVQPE
Method: To identify the SHMOOSE interactome, multiple experiments were conducted. First, 1.5 nmol of SHMOOSE was spiked into 1 mg SH-SY5Y cell lysate for 6 hours at 4° C. Lysates were prepared using Thermo Pierce CoIP lysis buffer with 1× Thermo protease inhibitor cocktail and 1 mM PMSF. Briefly, cells were washed with ice-cold DPBS twice, lysed for 15 minutes on ice, and centrifuged for 10 minutes at 12,000 RCF at 4° C. The rationale for conducting this experiment was to ensure identical protein amounts between conditions and avoid differential protein expression caused by SHMOOSE treatment to cells. After 6 hours, SHMOOSE was immunoprecipitated from samples using Dynabeads A conjugated to 5 ug of custom c-terminus SHMOOSE antibody. As a negative control, SHMOOSE-spiked lysates were also immunoprecipitated using 5 ug rabbit IgG. Proteins were eluted from beads using 50 mM Glycine pH 2.8, and eluents were pH neutralized using Tris HCl pH 7.5. Complete eluents were then processed for protein identification using LC-MS. […] Statistical analysis of MaxQuant label-free quantitation data was performed with the artMS Bioconductor package, which performs the relative quantification of protein abundance using the MSstats Bioconductor package (default parameters). […]

[7] = molecular target: ATP5A1 (UniProt P25705 44-553, limits assumed); assay: binding of SHMOOSE to ATP5 subunits (FIG. 9C/9D); method not described
Chain of ATP5A1 (P25705 44-553 limits assumed): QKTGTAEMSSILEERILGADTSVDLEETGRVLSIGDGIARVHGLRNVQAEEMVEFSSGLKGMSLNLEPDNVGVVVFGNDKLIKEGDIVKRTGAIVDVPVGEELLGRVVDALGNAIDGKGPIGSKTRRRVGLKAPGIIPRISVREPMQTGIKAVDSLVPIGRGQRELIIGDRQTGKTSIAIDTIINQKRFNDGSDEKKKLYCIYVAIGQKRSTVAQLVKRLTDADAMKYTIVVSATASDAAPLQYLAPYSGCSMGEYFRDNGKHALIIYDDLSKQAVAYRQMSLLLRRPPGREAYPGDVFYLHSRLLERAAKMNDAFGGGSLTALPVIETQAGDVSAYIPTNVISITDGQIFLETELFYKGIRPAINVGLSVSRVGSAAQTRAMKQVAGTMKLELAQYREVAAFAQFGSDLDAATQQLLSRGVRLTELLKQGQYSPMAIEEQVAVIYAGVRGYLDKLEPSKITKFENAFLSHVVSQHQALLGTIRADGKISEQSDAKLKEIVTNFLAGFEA

[8] = molecular target: the molecule itself; assay: Western blot of subcellular fractions of SHMOOSE-treated SH-SY5Y cells (FIG. 4A)
Method: Cytosolic, nuclear, and mitochondrial fractions were prepared from cultured SH-SY5Y cells. To extract nuclei, cells were washed in ice-cold DPBS and resuspended in fractionation buffer containing 10 mM HEPES pH 7.6, 3 mM MgCl2, 10 mM KCl, 5% (v/v) glycerol, 1% Triton-X100, and protease/phosphatase inhibitors for 15 minutes, followed by centrifugation for 5 minutes at 250×g and 4° C. The resulting supernatant was further centrifuged once more at 18,000×g for 10 minutes at 4° C. to obtain a relatively pure cytoplasmic fraction. The original pellet prior to the 18,000×g centrifugation was washed in 10 mM HEPES pH 7.6, 1.5 mM MgCl2, 10 mM KCl, and protease/phosphatase inhibitors and centrifuged at 250×g and 4° C. The washed pellet was then resuspended in nuclear extraction buffer containing 20 mM HEPES pH 7.6, 1.5 mM MgCl2, 420 mM NaCl, 25% (v/v) glycerol, 0.2 mM EDTA, and protease/phosphatase inhibitors, followed by three sonication periods of 5 seconds (separated by 10 seconds) with 30% amplitude on ice. The sonicated pellet was centrifuged at 18,000×g for 10 minutes at 4° C. to obtain a relatively pure nuclear lysate. To extract mitochondria, cells were washed in ice-cold DPBS and resuspended in 2 ml hypotonic buffer containing 10 mM NaCl, 1.5 mM MgCl2, and 10 mM Tris-HCl pH 7.5 for 7.5 minutes. […]

## 107 (MPSCLTTWISSIISDNSYPLVLGPKNFGATPNKSNNHAHYYNHPNPDFPNSPHPYHPR) [compound 107]
[1]
  % Efficacy: 134.2%

## MPPCLTTWLSQLLKDNSYPLVLGPKNFGATPNKSNNHAHYYNHPNPDFPNSPHPYHPR [SHMOOSE]
[2]
  toxic effects and behavior changes: did not display toxic effects nor behavior changes
[3]
  entry into circulation: goes into the blood stream
  half-life: strong half-life

## MPPCLTTWLSQLLKDNSYPLVLGPKNFGATPNKSNNHAHYYNHPNPNFPNSPHPYHPR [SHMOOSE.D47N]
[4]
  basal cell oxygen consumption rate (in words): but not mutant SHMOOSE.D47N, boosts basal cell oxygen consumption rate
[4]; after oligomycin and FCCP, 24 hours incubation
  mitochondrial spare capacity: boosted mitochondrial spare capacity
[5]
  protection against cell death: did not similarly protect cells
[6]
  binding to mitofilin: confirming binding

B1: SHMOOSE (Small Human Mitochondrial Open reading frame Over the SErine-tRNA) peptide (peptide)
peptide: MPPCLTTWLSQLLKDNSYPLVLGPKNFGATPNKSNNHAHYYNHPNPDFPNSPHPYHPR
notes: Endogenous SHMOOSE in Western blots is treated as the same molecule; also called wild type SHMOOSE; synthetic SHMOOSE
[7]
  binding result: no binding
[8]
  binding result: binds
